From patent US9187460B2, “Estrogen receptor modulators and uses thereof” (SERAGON PHARMACEUTICALS, INC., priority 2011, dated 2015)

Legend:
MCF-7 cells = test: Breast Cancer Cell Viability Assay (MCF7 Viability Assay); assay type: cell-based; conditions: for IC50: Homo sapiens, MCF7, 120 h, read-out: MCF7 Viability Assay IC50; for MCF7 Viability Assay Max Response: MCF-7 cells, 5 days' compound exposure, CellTiter-Glo
ER-α = biological target: T1, ER-α (Homo sapiens, UniProt P03372); test: Breast Cancer Cell ER-α in Cell Western Assay (SP1); assay type: cell-based; conditions: MCF7, read-out: ER In-Cell Western Assay (SP1); Max Response
T1 construct: endogenous in cells; host or cells: MCF-7
T1 sequence (P03372 whole entry): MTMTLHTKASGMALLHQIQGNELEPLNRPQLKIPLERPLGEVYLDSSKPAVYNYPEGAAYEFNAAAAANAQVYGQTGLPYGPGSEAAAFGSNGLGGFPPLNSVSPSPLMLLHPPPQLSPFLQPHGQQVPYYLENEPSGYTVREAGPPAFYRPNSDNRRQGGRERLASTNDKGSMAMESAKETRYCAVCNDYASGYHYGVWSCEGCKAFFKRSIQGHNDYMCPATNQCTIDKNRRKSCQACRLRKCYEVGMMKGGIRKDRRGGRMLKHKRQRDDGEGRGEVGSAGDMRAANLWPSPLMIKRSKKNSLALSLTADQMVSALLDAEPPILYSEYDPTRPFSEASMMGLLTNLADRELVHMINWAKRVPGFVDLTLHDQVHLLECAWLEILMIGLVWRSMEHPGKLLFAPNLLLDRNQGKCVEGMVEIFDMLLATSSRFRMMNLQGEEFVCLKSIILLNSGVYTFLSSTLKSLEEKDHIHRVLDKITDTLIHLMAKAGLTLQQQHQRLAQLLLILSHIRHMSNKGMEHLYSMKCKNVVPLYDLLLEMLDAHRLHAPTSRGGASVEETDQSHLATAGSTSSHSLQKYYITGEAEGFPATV
Description: Breast Cancer Cell ER-α in Cell Western Assay (SP1)
MCF-7 cells were adjusted to a concentration of 200,000 cells per mL in RPMI containing 10% charcoal-stripped FBS and 20 mM HEPES. 16 microliters of the cell suspension (3200 cells) was added to each well of a poly-D-lysine 384 well plate, and the cells were incubated overnight to allow the cells to adhere. The following day an eleven point, serial semilog dilution of each compound was added to the cells in 16 μL at a final concentration ranging from 0.3-0.000003 μM. At 4 or 24 hr post compound addition, the cells were fixed (10% formalin in PBS) for 20 minutes. Cells were permeablized in PBS 0.1% Triton and blocked with LICOR blocking buffer (50 μl/well, 90′). The wells were then incubated overnight at 4° C. with SP1 rabbit monoclonal Ab (Thermo Scientific) diluted 1:1000 in LICOR blocking buffer/0.1% Tween-20. Wells which were treated with blocking buffer with Tween but no antibody were used as a background control. Wells were washed with 0.1% Tween-20/PBS and then incubated in goat anti-rabbit IRDye™ 800CW (LICOR Inc.; 1:1000) and DRAQ5 DNA dye (1:2000 for 2 mM stock) diluted in LICOR blocking buffer containing 0.1% Tween-20 and 0.01% SDS for 60 minutes. Cells were washed (50 μl/well, 5′ each) in 0.1% Tween-20/PBS. Plates were scanned on a LICOR Odyssey infrared imaging system. Integrated intensities in the 800 nm channel and 700 nm channel were measured to determine levels of ER and DNA respectively. Percent ER levels were determined as follows: (Integrated intensity 800 nm sample/integrated intensity 700 nm sample)/(Integrated intensity 800 nm untreated cells/integrated intensity 700 nm untreated cells)×100=% ER levels.

In the case of `CC1=C(c2cc(O)ccc2Br)C(c2ccc(OC[C@H](C)N3CC[C@@H](C)C3)cc2)Oc2ccc(O)cc21` (stereo partly drawn) [Example 2, 3-(2-Bromo-5-hydroxyphenyl)-4-methyl-2-(4-((S)-2-((R)-3-methylpyrrolidin-1-yl)propoxy)phenyl)-2H-chromen-6-ol], the IC50 (MCF-7 cells) is reported as less than 1 nM, the “MCF7 Viability Assay Max Response” value (MCF-7 cells) is reported as “++ (++ = a single % value ≧50%)” and the Emax (ER-α) is reported as greater than 85%.

With `CC1=C(c2ccc(O)cc2C#N)C(c2ccc(OC[C@H](C)N3CC[C@@H](C)C3)cc2)Oc2ccc(O)cc21` (stereo partly drawn) [Example 12, 5-Hydroxy-2-(6-hydroxy-4-methyl-2-(4-((S)-2-((R)-3-methylpyrrolidin-1-yl)propoxy)phenyl)-2H-chromen-3-yl)benzonitrile] the IC50 (MCF-7 cells) was less than 1 nM, the “MCF7 Viability Assay Max Response” value (MCF-7 cells) was “++ (++ = a single % value ≧50%)” and the Emax (ER-α) was 60 to 85%.

`CC1=C(c2cccc(O)c2)C(c2ccc(OC[C@H](C)N3CCOC[C@H]3C)cc2)Oc2ccc(O)cc21` (stereo partly drawn) [Example 27, 3-(3-Hydroxyphenyl)-4-methyl-2-(4-((S)-2-((R)-3-methylmorpholino)propoxy)phenyl)-2H-chromen-6-ol] was tested, and the IC50 (MCF-7 cells) was less than 1 nM, the “MCF7 Viability Assay Max Response” value (MCF-7 cells) was “++ (++ = a single % value ≧50%)” and the Emax (ER-α) was less than 60%.

With `COc1ccc2c(c1)C(C)=C(c1ccc(O)cc1)C(c1ccc(OC[C@H](C)N3CC[C@@H](C)C3)cc1)O2` (stereo partly drawn) [Example 30, 4-(6-Methoxy-4-methyl-2-(4-((S)-2-((R)-3-methylpyrrolidin-1-yl)propoxy)phenyl)-2H-chromen-3-yl)phenol] the IC50 (MCF-7 cells) was greater than 1 nM, the “MCF7 Viability Assay Max Response” value (MCF-7 cells) was “++ (++ = a single % value ≧50%)” and the Emax (ER-α) was 60 to 85%.

In the case of `CC1=C(c2cccc(O)c2)C(c2ccc(OCCN3CCO[C@@H](C)C3)cc2)Oc2ccc(O)cc21` (stereo partly drawn) [Example 20, 3-(3-Hydroxyphenyl)-4-methyl-2-(4-(2-((S)-2-methylmorpholino)ethoxy)phenyl)-2H-chromen-6-ol], the IC50 (MCF-7 cells) is reported as less than 1 nM, the “MCF7 Viability Assay Max Response” value (MCF-7 cells) is reported as “+ (+ = a single % value <50%)” and the Emax (ER-α) is reported as less than 60%.

`CC1=C(c2cc(O)ccc2C#N)C(c2ccc(OC[C@H](C)N3CC[C@@H](C)C3)cc2)Oc2ccc(O)cc21` (stereo partly drawn) [Example 8, 4-Hydroxy-2-(6-hydroxy-4-methyl-2-(4-((S)-2-((R)-3-methylpyrrolidin-1-yl)propoxy)phenyl)-2H-chromen-3-yl)benzonitrile] was tested, and the IC50 (MCF-7 cells) was less than 1 nM, the “MCF7 Viability Assay Max Response” value (MCF-7 cells) was “++ (++ = a single % value ≧50%)” and the Emax (ER-α) was greater than 85%.

For `CC1=C(c2cccc(O)c2)C(c2ccc(OCCN3CCO[C@H](C)C3)cc2)Oc2ccc(O)cc21` (stereo partly drawn) [Example 22, 3-(3-Hydroxyphenyl)-4-methyl-2-(4-(2-((R)-2-methylmorpholino)ethoxy)phenyl)-2H-chromen-6-ol], the IC50 (MCF-7 cells) was greater than 1 nM, the “MCF7 Viability Assay Max Response” value (MCF-7 cells) was “+ (+ = a single % value <50%)” and the Emax (ER-α) was less than 60%.

In the case of `CC1=C(c2cccc(S(C)(=O)=O)c2)C(c2ccc(OC[C@H](C)N3CC[C@@H](C)C3)cc2)Oc2ccc(O)cc21` (stereo partly drawn) [Example 15, 4-Methyl-2-(4-((S)-2-((R)-3-methylpyrrolidin-1-yl)propoxy)phenyl)-3-(3-(methylsulfonyl)phenyl)-2H-chromen-6-ol], the IC50 (MCF-7 cells) is reported as greater than 1 nM, the “MCF7 Viability Assay Max Response” value (MCF-7 cells) is reported as “++ (++ = a single % value ≧50%)” and the Emax (ER-α) is reported as 60 to 85%.

With `CC1=C(c2ccc(C#N)cc2)C(c2ccc(OC[C@H](C)N3CC[C@@H](C)C3)cc2)Oc2ccc(O)cc21` (stereo partly drawn) [Example 5, 4-(6-Hydroxy-4-methyl-2-(4-((S)-2-((R)-3-methylpyrrolidin-1-yl)propoxy)phenyl)-2H-chromen-3-yl)benzonitrile] the IC50 (MCF-7 cells) was greater than 1 nM, the “MCF7 Viability Assay Max Response” value (MCF-7 cells) was “++ (++ = a single % value ≧50%)” and the Emax (ER-α) was 60 to 85%.

For `CC1=C(c2ccc(C#N)cc2C)C(c2ccc(OC[C@H](C)N3CC[C@@H](C)C3)cc2)Oc2ccc(O)cc21` (stereo partly drawn) [Example 13, 4-(6-Hydroxy-4-methyl-2-(4-((S)-2-((R)-3-methylpyrrolidin-1-yl)propoxy)phenyl)-2H-chromen-3-yl)-3-methylbenzonitrile], the IC50 (MCF-7 cells) was greater than 1 nM, the “MCF7 Viability Assay Max Response” value (MCF-7 cells) was “++ (++ = a single % value ≧50%)” and the Emax (ER-α) was 60 to 85%.

With `CC1=C(c2ccc(O)c(C#N)c2)C(c2ccc(OC[C@H](C)N3CC[C@@H](C)C3)cc2)Oc2ccc(O)cc21` (stereo partly drawn) [Example 11, 2-Hydroxy-5-(6-hydroxy-4-methyl-2-(4-((S)-2-((R)-3-methylpyrrolidin-1-yl)propoxy)phenyl)-2H-chromen-3-yl)benzonitrile] the IC50 (MCF-7 cells) was greater than 1 nM, the “MCF7 Viability Assay Max Response” value (MCF-7 cells) was “++ (++ = a single % value ≧50%)” and the Emax (ER-α) was greater than 85%.

For `CC1=C(c2cccc(O)c2)C(c2ccc(OC[C@H](C)N3CCN(C)C[C@H]3C)cc2)Oc2ccc(O)cc21` (stereo partly drawn) [Example 28, 2-(4-((S)-2-((R)-2,4-Dimethylpiperazin-1-yl)propoxy)phenyl)-3-(3-hydroxyphenyl)-4-methyl-2H-chromen-6-ol], the IC50 (MCF-7 cells) was less than 1 nM, the “MCF7 Viability Assay Max Response” value (MCF-7 cells) was “+ (+ = a single % value <50%)” and the Emax (ER-α) was less than 60%.

With `CC1=C(c2cccc(O)c2)C(c2ccc(OCCN3CCOC[C@@H]3C)cc2)Oc2ccc(O)cc21` (stereo partly drawn) [Example 23, 3-(3-Hydroxyphenyl)-4-methyl-2-(4-(2-((S)-3-methylmorpholino)ethoxy)phenyl)-2H-chromen-6-ol] the IC50 (MCF-7 cells) was greater than 1 nM, the “MCF7 Viability Assay Max Response” value (MCF-7 cells) was “+ (+ = a single % value <50%)” and the Emax (ER-α) was less than 60%.

For `COc1cccc(C2=C(C)c3cc(O)ccc3OC2c2ccc(OC[C@H](C)N3CC[C@@H](C)C3)cc2)c1` (stereo partly drawn) [Example 31, 3-(3-Methoxyphenyl)-4-methyl-2-(4-((S)-2-((R)-3-methylpyrrolidin-1-yl)propoxy)phenyl)-2H-chromen-6-ol], the IC50 (MCF-7 cells) was greater than 1 nM, the “MCF7 Viability Assay Max Response” value (MCF-7 cells) was “++ (++ = a single % value ≧50%)” and the Emax (ER-α) was 60 to 85%.

With `CC1=C(c2cccc(O)c2)C(c2ccc(OCCN3CCSCC3)cc2)Oc2ccc(O)cc21` (stereo not drawn) [Example 19, 3-(3-Hydroxyphenyl)-4-methyl-2-(4-(2-thiomorpholinoethoxy)phenyl)-2H-chromen-6-ol] the IC50 (MCF-7 cells) was less than 1 nM, the “MCF7 Viability Assay Max Response” value (MCF-7 cells) was “+ (+ = a single % value <50%)” and the Emax (ER-α) was 60 to 85%.

For `CO[C@@H]1CCN([C@@H](C)COc2ccc(C3Oc4ccc(O)cc4C(C)=C3c3cccc(O)c3)cc2)C1` (stereo partly drawn) [Example 25, 3-(3-Hydroxyphenyl)-2-(4-((S)-2-((R)-3-methoxypyrrolidin-1-yl)propoxy)phenyl)-4-methyl-2H-chromen-6-ol], the IC50 (MCF-7 cells) was less than 1 nM, the “MCF7 Viability Assay Max Response” value (MCF-7 cells) was “++ (++ = a single % value ≧50%)” and the Emax (ER-α) was 60 to 85%.

With `CC1=C(c2cc(O)cc(S(C)(=O)=O)c2)C(c2ccc(OC[C@H](C)N3CC[C@@H](C)C3)cc2)Oc2ccc(O)cc21` (stereo partly drawn) [Example 16, 3-(3-Hydroxy-5-(methylsulfonyl)phenyl)-4-methyl-2-(4-((S)-2-((R)-3-methylpyrrolidin-1-yl)propoxy)phenyl)-2H-chromen-6-ol] the IC50 (MCF-7 cells) was greater than 1 nM, the “MCF7 Viability Assay Max Response” value (MCF-7 cells) was “++ (++ = a single % value ≧50%)” and the Emax (ER-α) was 60 to 85%.

In the case of `CC1=C(c2ccc(C#N)c(O)c2)C(c2ccc(OC[C@H](C)N3CC[C@@H](C)C3)cc2)Oc2ccc(O)cc21` (stereo partly drawn) [Example 10, 2-Hydroxy-4-(6-hydroxy-4-methyl-2-(4-((S)-2-((R)-3-methylpyrrolidin-1-yl)propoxy)phenyl)-2H-chromen-3-yl)benzonitrile], the IC50 (MCF-7 cells) is reported as greater than 1 nM, the “MCF7 Viability Assay Max Response” value (MCF-7 cells) is reported as “++ (++ = a single % value ≧50%)” and the Emax (ER-α) is reported as greater than 85%.

`CC1=C(c2cccc(C#N)c2)C(c2ccc(OC[C@H](C)N3CC[C@@H](C)C3)cc2)Oc2ccc(O)cc21` (stereo partly drawn) [Example 6, 3-(6-Hydroxy-4-methyl-2-(4-((S)-2-((R)-3-methylpyrrolidin-1-yl)propoxy)phenyl)-2H-chromen-3-yl)benzonitrile] was tested, and the IC50 (MCF-7 cells) was greater than 1 nM, the “MCF7 Viability Assay Max Response” value (MCF-7 cells) was “++ (++ = a single % value ≧50%)” and the Emax (ER-α) was 60 to 85%.

For `CC1=C(c2ccccc2Br)C(c2ccc(OC[C@H](C)N3CC[C@@H](C)C3)cc2)Oc2ccc(O)cc21` (stereo partly drawn) [Example 3, 3-(2-Bromophenyl)-4-methyl-2-(4-((S)-2-((R)-3-methylpyrrolidin-1-yl)propoxy)phenyl)-2H-chromen-6-ol], the IC50 (MCF-7 cells) was less than 1 nM, the “MCF7 Viability Assay Max Response” value (MCF-7 cells) was “++ (++ = a single % value ≧50%)” and the Emax (ER-α) was 60 to 85%.

For `CC1=C(c2cccc(O)c2)C(c2ccc(OCCN3CCOCC3)cc2)Oc2ccc(O)cc21` (stereo not drawn) [Example 21, 3-(3-Hydroxyphenyl)-4-methyl-2-(4-(2-morpholinoethoxy)phenyl)-2H-chromen-6-ol], the IC50 (MCF-7 cells) was less than 1 nM, the “MCF7 Viability Assay Max Response” value (MCF-7 cells) was “+ (+ = a single % value <50%)” and the Emax (ER-α) was 60 to 85%.

With `CC1=C(c2ccc(O)c(S(C)(=O)=O)c2)C(c2ccc(OC[C@H](C)N3CC[C@@H](C)C3)cc2)Oc2ccc(O)cc21` (stereo partly drawn) [Example 17, 3-(4-Hydroxy-3-(methylsulfonyl)phenyl)-4-methyl-2-(4-((S)-2-((R)-3-methylpyrrolidin-1-yl)propoxy)phenyl)-2H-chromen-6-ol] the IC50 (MCF-7 cells) was greater than 1 nM, the “MCF7 Viability Assay Max Response” value (MCF-7 cells) was “+ (+ = a single % value <50%)” and the Emax (ER-α) was less than 60%.
